Measured values: article PMC9968170 (Pharmaceutics, 2023)
Like-named read-outs stand apart in the source and are kept apart here.

Assays:
[1] = FUR alone 5 mg/kg PO
[2] = cited from earlier work
[3] = PK of NOV (oral, given with FUR) in rats; assay type: in vivo, Sprague-Dawley rats; conditions: NOV 20 mg/kg PO; for CL renal: Sprague-Dawley, rat, urine and whole blood, read-out: NOV renal clearance (CLR) (converted)
Experimental: The rats were housed 2–3 per cage in a specific-pathogen-free facility with controlled light (14/10 h, light/dark cycle), temperature (20–26 °C), and humidity (50 ± 20%).
For groups 2 and 4, the rats were fasted between 4 h prior to dosing and 2 h post-dose with free access to water. […] The blood samples (25 µL) were collected in duplicate in 1 mL tubes and mixed with an equal volume of water containing heparin (30 IU/mL containing 0.05% formic acid) at pre-dose, 0.25, 0.5, 0.75, 1, 1.5, 2, 4, and 6 h.
Next, 300 µL of acetonitrile containing FUR-d5 (as internal standard; 300 ng/mL) was added to 50 µL of the calibration curve standards, QC samples, and rat blood samples to precipitate blood proteins. […] One μL of the sample was injected and LC separation was achieved using an Acquity UPLC HSS T3 column (100Å, 1.8 µm, 1 mm × 100 mm) and mobile phase (A: water with 0.1% formic acid and B: acetonitrile with 0.1% formic acid; 50 μL/min flow) with a gradient program: 0.0–1.5 min (5% B), 1.5–3.5 min (5–70% B), 3.5–5 min (70–90% B), 5–7.5 min (90% B), and 7.5–7.6 min (90–5% B), followed by 5% B until 8.5 min. […] The cone voltage (CV) was 25 V.
Similarly, 25 µL of urine sample (diluted 10-fold with water containing 0.1% formic acid) was mixed with 75 µL of acetonitrile containing 100 ng/mL of FUR-d5.
(1) CLR=Ae 0−6 h/AUC0−6 h where, Ae is the cumulative amount of drug excreted unchanged in the urine between 0 to 6 h.

[4] = test system: OAT1; design: method as in PMID 16489126, PMID 26700956, PMID 19282394; conditions: human OAT1; cited from earlier work
[5] = test system: OAT3; design: method as in PMID 16489126, PMID 26700956, PMID 19282394; conditions: human OAT3; cited from earlier work
[6] = test system: human Bcrp; conditions: cited from earlier work
[7] = test system: Bcrp; design: method as in PMID 31868552; conditions: rats, cited from earlier work

For `NS(=O)(=O)c1cc(C(=O)O)c(NCc2ccco2)cc1Cl` [FUR, Furosemide], the “FUR CLR, male compared to female rats” value [1] is listed as 2 fold and the “Fraction excreted unchanged in urine, fe” value [2] is listed as “≈ 65%”.

For `CO[C@@H]1[C@@H](OC(N)=O)[C@@H](O)[C@H](Oc2ccc3c(O)c(NC(=O)c4ccc(O)c(CC=C(C)C)c4)c(=O)oc3c2C)OC1(C)C` [NOV, Novobiocin], the “AUC and Cmax of NOV, male vs female rats” value [3] was “comparable”, the CL renal ([3]; female rats) was 0.00833 mL/min and the CL renal ([3]; male rats) was 0.0383 mL/min. For the same compound, the “Food-effect on the PK of NOV” value ([3]; fed vs fasted state) was “no food-effect”, the IC50 [4] was 34.8 µM and the IC50 [5] was 5 µM. For the same compound, the IC50 [6] was […].

For `O=C(O)c1cc(/N=N/c2ccc(S(=O)(=O)Nc3ccccn3)cc2)ccc1O` [sulfasalazine], the “Effect of NOV on systemic clearance of sulfasalazine” value ([7]; intravenous dosing) is given as “not influenced”, the “Increase of sulfasalazine AUC with NOV coadministration” value ([7]; oral administration) is given as 3.2 fold and the “Increase of sulfasalazine Cmax with NOV coadministration” value ([7]; oral administration) is given as 5.9 fold.
